Laboratory results: patent US12458605B2, “Lipid nanoparticle” (National University Corporation Hokkaido University, priority 2020, dated 2025)
“And” between values parts separate entries of the source, which are not always exact repeats. Identical values can stand only once.

Assays:
[1] = Average particle size and PDI by dynamic light scattering (Zetasizer Nano ZS); assay type: physicochemical
Experimental: (§1) The average particle size (number-average value) and PDI in PBS(−) and zeta potential in 10 mM HEPES buffer solution (pH 7.4) of lipid nanoparticles were measured using “Zetasizer Nano ZS ZEN3600”, an analyzer utilizing dynamic light scattering (manufactured by Malvern).

[2] = siRNA/mRNA encapsulation rate by Ribogreen reagent (section IV); assay type: physicochemical; conditions: for % siRNA encapsulation: F7siRNA-loaded LNP, 50:10:38.5:1.5, N/P ratio 6; for % mRNA encapsulation: FlucmRNA-loaded LNP, 50:10:38.5:1.5
Method in brief: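 Encapsulation % was calculated as (total − surface nucleic acid)/total × 100, with both values measured by RiboGreen fluorescence at 485/528 nm. Total RNA was read on LNPs lysed with 1% Triton X-100 at 1.2 μg/mL, and surface RNA on intact LNPs at 8 μg/mL in TE buffer. Concentrations came from a 0-2.5 μg/mL Triton-containing calibration curve.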

[3] = Storage stability of FlucmRNA-loaded LNP at −80, 5, 25 and 40° C.; assay type: physicochemical; conditions: for period for which quality remained good, −80° C.: maximum storage period 1 week
Method in brief: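 Reported period is how long all three criteria hold: encapsulation rate at 80% or more, PDI of 0.2 or less, and mean particle size within +/−20 nm of day-of-preparation value. Particle size, PDI and nucleic acid encapsulation were tracked over time at storage temperatures of −80, 5, 25 and 40° C.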

liver = assay: In vivo Fluc activity of FlucmRNA-loaded LNP by in vivo imaging, liver; conditions: Balb/c mice, 6 hours; for Fluc Activity in liver: FlucmRNA-loaded LNP i.v. 0.1 mg mRNA/kg
Method in brief: (§2)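 Read-out is average radiance (p/s/cm2/sr, about 560 nm) from whole-animal imaging of liver and spleen 6 h post-dose, after tail-vein luciferin at 1.5 mg/mouse. Dosing was intravenous, 0.1 mg mRNA/kg, in 7-week-old female Balb/c mice.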

[4] = Nucleic acid encapsulation rate by Ribogreen (section II); assay type: physicochemical; conditions: for % pDNA encapsulation: pFluc-loaded LNP
Experimental: The encapsulation rates of siRNA, mRNA, and pDNA of lipid nanoparticles were measured using Ribogreen (manufactured by life technologies).

F7 = assay: In vivo F7 knockdown, plasma F7 enzyme activity (BIOPHEN FVII), Balb/c mice; conditions: for F7 enzyme activity (%) / F7 enzyme activity (Ratio using MC3 as 1): i.v. 0.025 mg siRNA/kg, plasma at 24 hours; for F7 enzyme activity (%): untreated mice as 100%; for knockdown activity, compared with MC3: F7siRNA-loaded LNP, versus LNP comprising MC3; for F7 enzyme activity (Ratio using MC3 as 1): relative plasma F7 activity of MC3 LNP as 1
Method in brief: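 Plasma factor VII activity was read 24 h after a single intravenous 0.025 mg siRNA/kg dose of siRNA-loaded lipid nanoparticles in 5-week-old female Balb/c mice. Activity is relative to untreated animals (100%) and normalised to the MC3 nanoparticle benchmark (=1).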

[5] = Average particle size (ζ-Average) and PDI by dynamic light scattering (Zetasizer Nano ZSP); assay type: physicochemical
Method in brief: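 Dynamic light scattering of the particles in PBS(−) gave both the polydispersity index and the ζ-Average mean size.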

spleen = assay: In vivo Fluc activity of FlucmRNA-loaded LNP by in vivo imaging, spleen; conditions: Balb/c mice, 6 hours; for Fluc Activity in spleen: FlucmRNA-loaded LNP i.v. 0.1 mg mRNA/kg
Method in brief: as §2

[6] = Zeta potential in 10 mM HEPES buffer (pH 7.4); assay type: physicochemical
Experimental: as §1

factor VII (F7) = conditions: mouse liver; lipid as LNP carrier of siRNA; cited from earlier work
[7] = NlucmRNA-loaded LNP, 60:10:40:1
[8] = F7siRNA-loaded LNP, 50:10:38.5:1.5, N/P ratio 6
[9] = FlucmRNA-loaded LNP, 50:10:38.5:1.5
[10] = FlucmRNA-loaded LNP, lipid:DSPC:cholesterol:DMG-PEG2K 50:10:38.5:1.5
[11] = 0.1 mg mRNA/kg, versus LNP comprising CL15F6 (Table 7)

| SMILES | % siRNA encapsulation [2] | % mRNA encapsulation [2] [%] | period for which quality remained good, −80° C. [3] [week] | period for which quality remained good, 5° C. ([3]; maximum storage period 5 weeks) | period for which quality remained good, 25° C. ([3]; maximum storage period 5 weeks) | Fluc Activity in liver (liver) | F7 enzyme activity (%) (F7) | PDI [5, 8] | ζ-Average (nm) [5, 8] | PDI [5, 9] | ζ-Average (nm) [5, 10] [nm] | Fluc Activity in spleen (spleen) | period for which quality remained good, 40° C. (weeks) ([3]; maximum storage period 5 weeks) | knockdown activity, compared with MC3 (F7) | F7 enzyme activity (Ratio using MC3 as 1) (F7) | also measured |
| --- | --- | --- | --- | --- | --- | --- | --- | --- | --- | --- | --- | --- | --- | --- | --- | --- |
| CCCCCCCC/C=C\CCCCCCCC(=O)OCCCCCCC(O)(CCCCCCOC(=O)CCCCCCC/C=C\CCCCCCCC)CCCCN(CCC)CCC [CL4H6, 7-(4-(dipropylamino)butyl)-7-hydroxytridecane-1,13-diyl dioleate, reference compound] | 96.1% | 80.1 | 0 | 0 week weeks | 1 week weeks | 1.06E+07 Avg Radiance [p/s/cm2/sr] | 47.2 | 0.102 | 68.86 nm | 0.072 | 71.28 | 2.10E+06 Avg Radiance [p/s/cm2/sr] | – | – | – | PdI [1, 7]: 0.139; ζ-Average (nm) ([1]; NlucmRNA-loaded LNP, lipid:DSPC:cholesterol:PEG-DMG 60:10:40:1): 113.4 nm; ζ-Average (nm) ([1]; pFluc-loaded LNP, 50:10:40:1.5, N/P ratio 6): 105.6 nm; ζ-Average (nm) ([1]; pFluc-loaded LNP, 50:10:40:1.5, N/P ratio 9): 113.9 ± 4.2 nm; PdI ([1]; pFluc-loaded LNP, N/P ratio 6): 0.14; PdI ([1]; pFluc-loaded LNP, N/P ratio 9): 0.2 ± 0.03; period for which quality remained good, 40° C. (days) ([3]; maximum storage period 5 weeks): 0 day days; % mRNA encapsulation [4, 7]: 77.6%; % pDNA encapsulation ([4]; N/P ratio 6): 41.5%; % pDNA encapsulation ([4]; N/P ratio 9): 70 ± 5.2%; ζ-potential (mV) [6, 7]: −1.23 mV; ζ-potential (mV) ([6]; pFluc-loaded LNP, N/P ratio 6): −0.57 mV; ζ-potential (mV) ([6]; pFluc-loaded LNP, N/P ratio 9): −0.4 ± 0.4 mV |
| CCCCC/C=C\C/C=C\CCCCCCCCOC1(OCCCCCCCC/C=C\C/C=C\CCCCC)CCN(C)CC1 [YSK05] | – | – | – | – | – | – | – | – | – | – | – | – | – | – | – | ED50 in F7 knockdown (factor VII (F7)): 0.06 mg siRNA/kg |
| CCCCCCCCCCC(CCCCCC)C(=O)OCCCCCCC(O)(CCCCCCOC(=O)C(CCCCCC)CCCCCCCCCC)CCCCN(CCC)CCC (stereo not drawn) [CL4F 12-6] | 99.3% and 99.6% | 99.7 | 1 | 5 weeks | 5 weeks | 5.86E+07 Avg Radiance [p/s/cm2/sr] | 6 | 0.012 and 0.008 | 92.28 nm and 94.26 nm | 0.017 | 82.84 | 1.72E+06 Avg Radiance [p/s/cm2/sr] | 5 | higher knockdown activity | 0.18 | – |
| CCCCCCCCCC(CCCCCC)C(=O)OCCCCCCC(O)(CCCCCCOC(=O)C(CCCCCC)CCCCCCCCC)CCCCOC(=O)C1CCN(C)CC1 (stereo not drawn) [CL15F 11-6] | 100.3% | 99.75 | 1 | 5 weeks | 5 weeks | 9.09E+06 Avg Radiance [p/s/cm2/sr] | – | 0.025 | 101.2 nm | 0.007 | 106.50 | 8.19E+06 Avg Radiance [p/s/cm2/sr] | 5 | higher knockdown activity | 0.81 | Fluc activity in the liver, compared with CL15F6 (liver; [11]): higher Fluc activity; Fluc activity in the spleen, compared with CL15F6 (spleen; [11]): higher Fluc activity |
